“Also recorded” adds a separate entry of the source. Square brackets hold non-standard residues; d marks the D form. Ends that are not written are not given here. Dip = N[C@H](C(=O)O)C(c1ccccc1)c1ccccc1
Columns and labels:
murine B16 melanomas = assay: Murine melanoma model, intratumoural injections of LTX-401; type: in vivo
HEPG2 = assay: In vitro cytotoxicity, MTT assay; type: cell-based; settings: HEPG2 human hepatocellular carcinoma
Text: (§1) JM1, a rat hepatocellular carcinoma, HEPG2 and BEL7402, both human hepatocellular carcinomas, were kindly provided by Dr. Pål-Dag Line, Director, Department of Transplantation Medicine, Oslo University Hospital. B16F1 (ATCC, CRL-6323), a murine skin malignant melanoma, MDA-MB-435S (HTB-129), a human malignant melanoma originating from a breast metastases, Malme-3M (HTB-64), a human malignant melanoma derived from a lung metastases, MRC-5 (ATCC, CCL-171), normal human lung fibroblasts, SK-N-AS (ATCC, CRL-2137), a human neuroblastoma cell line derived from a bone marrow metastases, HT-29 (ATCC, HTB-38), a human colorectal adenocarcinoma and HUV-EC-C (ATCC, CRL-1730), a human vascular endothelium cell line, were all purchased from the American Type Culture Collection (ATCC-LGC Standards, Rockville, MD, USA). HaCat, a human keratinocyte cell line, was kindly provided by Dr. Ingvild Pettersen, Department of Host Microbe Interactions, University of Tromsø. A375, a malignant melanoma cell line of human origin, was purchased from Public Health England (PHE Culture Conditions, Porton, Down, Salisbury, UK). JM1, A375, BEL7402, HEPG2 and B16F1 were all maintained in culture media consisting of DMEM (high glucose), while SK-N-AS, HT-29 and MDA-MB-435S were cultured in an RPMI-1640 medium containing 2 mM L-glutamine and sodium bicarbonate. Malme-3M was cultured in RPMI-1640, containing 4 mM L-glutamine and 20% FBS (fetal bovine serum). Lastly, the three non-malignant cell lines, HUV-EC-C, MRC-5 and HaCat, were cultured, respectively, using the EGM-2 BulletKit (Lonza, MA), containing basal media and growth factors, MEM (normal glucose) also containing 2 mM L-glutamine and 1% non-essential amino acids and DMEM (normal glucose) containing 2 mM L-glutamine. All media were (if not specified otherwise) supplemented with 10% FBS, with the exception of the EGM-2 BulletKit, which is delivered with an aliquot of 10 ml FBS to yield a final concentration of 2% FBS in solution. […]

remaining cell lines = assay: In vitro cytotoxicity, MTT assay; type: cell-based
Text: as §1

[1] = system: rat transformed mesenchymal stem cell-derived sarcoma (rTMSC); assay: FACS analysis of TILs in rat rTMSC sarcoma model; type: in vivo; settings: for percentage of T cells / CD8+ cells within the CD3+ T cell population: mean±SD
Experimental: Pre-cultured rat transformed mesenchymal stem cell-derived sarcoma model cells (rTMSCs) were harvested in serum free RPMI-1640 and 200,000 rTMSCs were subcutaneously inoculated in the right flank into PVG rats on day ÷2 and 20,000 rTMSCs in the opposite flank on day 0. Established tumours (25 mm^2 mean tumour size) were injected intralesionally with LTX-315 (dissolved in sterile H2O with 0.9% NaC ) (n=8) or with vehicle (sterile H2O with 0.9% NaCl) (n=6). Treatment doses of LTX-315, 50 μl at […] (1 mg), were given using a 1 ml syringe (Myjector U-100, Terumo) needle 0.5×16 mm (Fine-Ject; Henke-Sass, Wolf GmbH. Injections were provided daily for three subsequent days. Tumour size was measured three times a week using a caliper and expressed as the area of an ellipse [(maximum dimension/2)×(minimum dimension/2)]. Animals were terminated when the tumor exceeded 400 mm^2.
Single-cell suspensions were prepared from fresh tumour tissue at different time points during the week after LTX-315 treatment. Tumours were gently minced with a razor blade and cut into small pieces (4 mm^2). Tumour tissue was incubated with Liberase TM (Thermolysin Medium; Roche Diagnostics) at a concentration of 0.18 Wünsch units/ml in 10 ml MEM media (Sigma-Aldrich) at 37° C. for 60 min with gentle agitation. The enzymatic digestion was terminated by addition of 2 ml 4° C. FCS (Invitrogen, Thermo Fischer). The cell suspension was filtered through a […] mesh (Cell Strainer; BD), washed in PBS and cells were then directly used for flow cytometric staining.
The mouse monoclonal antibodies against CD4 ([…]) and CD8 ([…]) were isolated from culture supernatants from hybridomas and were kind gifts from the MRC Cellular Immunology Unit, Oxford, UK. They were conjugated at IMB according to standard protocols. Fluorochrome-conjugated mAbs against CD3 (G4.18) was obtained from BD Biosciences, including PerCP Streptavidin. A four-color panel consisting of reagents in FITC/AI488, PE, PerCP Streptavidin and AI647 was applied and analyzed on a FACS Calibur (BD) equipped with the CellQuest software (BD). Dot plot and histogram gates were set using isotype control antibodies.

A375 cells = assay: Confocal microscopy, internalization of fluorescence-labeled peptide; type: cell-based, human
Experimental: The A375 cell line A375 (ECACC, 88113005) is a human malignant melanoma derived from patient material, and was purchased from Public Health England (PHE Culture Collections, Porton Down, Salisbury, UK). Cells were maintained as monolayer cultures in high glucose […] DMEM supplemented with 10% FBS and 1% L-glutamine, but not as antibiotics (complete media). The cell line was grown in a humidified 5% CO2 atmosphere at 37° C., and was regularly tested for the presence of mycoplasma with MycoAlert (Lonza).
Fixed cells, fluorescence-labeled peptide—Subconfluential A375 cells were seeded at 8,000 cells/well as above, and transfected on the second day using the Lipofectamine LTX with Plus transfection reagents (Invitrogen) following the manufacturer's protocol. The mitochondria were labeled using the pDsRed2-Mito, and the nucleus was labeled using the GFP-Histon2B plasmid (Imaging Platform, University of Tromsø). A day after transfection, cells were washed twice with serum-free RPMI, and treated at different concentration and incubation periods with LTX-315 Pacific Blue or LTX-328 Pacific Blue. […] Control cells were treated with unlabeled LTX-315 and also with serum-free RPMI only. After incubation, cells were fixed with 4% paraformaldehyde in PBS, and the wells were covered with Prolong Gold antifade (Invitrogen). Cells were further analyzed by use of a Leica TCS SP5 confocal microscope, with a […] objective. Pacific Blue, GFP and Ds Red were excited using UV, with 488 and 561 lasers, and fluorescence channels were sequentially detected using the following band passes: UV: 420-480 nm (with attenuation), 488: 501-550 nm and 561: 576-676 nm.

Compound: Cl.Cl.NCCNC(=O)C(CN)(CCCc1ccccc1)CCCc1ccccc1 [LTX-401]
- tumour regression / remission (murine B16 melanomas): complete and long-lasting remission; also recorded: complete regression
- IC50 (HEPG2): 35.4 µM
- IC50 (remaining cell lines): 19 to 32 µM

Compound: K-K-W-W-K-K-W-Dip-K-NH2 (KKWWKKW[Dip]K-NH2) [LTX-315]
- percentage of T cells ([1]; primary treated lesion): 28.35±11.78%
- CD8+ cells within the CD3+ T cell population ([1]; primary tumor of treated rats): 62.77±13.3
- CD8+ cells within the CD3+ T cell population ([1]; secondary tumor of treated rats): 45.8±5.4
- increase of percentage of T cells compared to untreated rats ([1]; secondary tumor tissue): 3 fold
- percentage of T cells ([1]; secondary tumor tissue): 39.83±17.4%
- accumulation of labelled peptide around the mitochondria (A375 cells; 1.5 μM, 30 minutes): showed an accumulation around the mitochondria
- detection of labelled peptide in the cell nucleus (A375 cells; 1.5 μM, 30 minutes): not detected in the cell nucleus
- internalization of peptide (A375 cells; 3 μM, 60 min): detected in the cytoplasm
- internalization of Pacific Blue-labelled peptide (A375 cells; A375 cells, 3 μM and 1.5 μM): rapidly penetrated the plasma membrane

From patent publication US20250002854A1, “METHODS OF GENERATING POPULATIONS OF TUMOUR-INFILTRATING T CELLS” (LYTIX BIOPHARMA AS, priority 2016, published 2025)
